Structures can show the parent of a compound that is named as a salt.
Key:
[1] = molecular target: JAK2 (Homo sapiens, UniProt O60674); assay: JAK2 Inhibition Assay; type: biochemical; settings: JAK-2 enzyme, 15 μM poly(Glu)4Tyr, 12 μM ATP
Experimental: (§1) Compounds were screened for their ability to inhibit JAK3 using the assay shown below. Reactions were carried out in a kinase buffer containing 100 mM HEPES (pH 7.4), 1 mM DTT, 10 mM MgCl2, 25 mM NaCl, and 0.01% BSA. Substrate concentrations in the assay were 5 μM ATP (200 uCi/μmole ATP) and 1 μM poly(Glu)4Tyr. Reactions were carried out 25° C. and 1 nM JAK3.
(§2) To each well of a 96 well polycarbonate plate was added 1.5 μl of a candidate JAK3 inhibitor along with 50 μl of kinase buffer containing 2 μM poly(Glu)4Tyr and 10 μM ATP. This was then mixed and 50 μl of kinase buffer containing 2 nM JAK3 enzyme was added to start the reaction. After 20 minutes at room temperature (25° C.), the reaction was stopped with 50 μl of 20% trichloroacetic acid (TCA) that also contained 0.4 mM ATP. The entire contents of each well were then transferred to a 96 well glass fiber filter plate using a TomTek Cell Harvester. After washing, 60 μl of scintillation fluid was added and ^33P incorporation detected on a Perkin Elmer TopCount.
The assays were as described above in Example 36 except that JAK-2 enzyme was used, the final poly(Glu)4Tyr concentration was 15 μM, and final ATP concentration was 12 μM.

[2] = molecular target: T1, JAK3 (Homo sapiens, UniProt P52333); assay: JAK3 Inhibition Assay; type: biochemical; settings: 1 nM JAK3, 1 μM poly(Glu)4Tyr, 5 μM ATP, 25° C.; read-out: enzyme inhibition data (Ki) JAK3
T1 sequence (P52333 1-1124): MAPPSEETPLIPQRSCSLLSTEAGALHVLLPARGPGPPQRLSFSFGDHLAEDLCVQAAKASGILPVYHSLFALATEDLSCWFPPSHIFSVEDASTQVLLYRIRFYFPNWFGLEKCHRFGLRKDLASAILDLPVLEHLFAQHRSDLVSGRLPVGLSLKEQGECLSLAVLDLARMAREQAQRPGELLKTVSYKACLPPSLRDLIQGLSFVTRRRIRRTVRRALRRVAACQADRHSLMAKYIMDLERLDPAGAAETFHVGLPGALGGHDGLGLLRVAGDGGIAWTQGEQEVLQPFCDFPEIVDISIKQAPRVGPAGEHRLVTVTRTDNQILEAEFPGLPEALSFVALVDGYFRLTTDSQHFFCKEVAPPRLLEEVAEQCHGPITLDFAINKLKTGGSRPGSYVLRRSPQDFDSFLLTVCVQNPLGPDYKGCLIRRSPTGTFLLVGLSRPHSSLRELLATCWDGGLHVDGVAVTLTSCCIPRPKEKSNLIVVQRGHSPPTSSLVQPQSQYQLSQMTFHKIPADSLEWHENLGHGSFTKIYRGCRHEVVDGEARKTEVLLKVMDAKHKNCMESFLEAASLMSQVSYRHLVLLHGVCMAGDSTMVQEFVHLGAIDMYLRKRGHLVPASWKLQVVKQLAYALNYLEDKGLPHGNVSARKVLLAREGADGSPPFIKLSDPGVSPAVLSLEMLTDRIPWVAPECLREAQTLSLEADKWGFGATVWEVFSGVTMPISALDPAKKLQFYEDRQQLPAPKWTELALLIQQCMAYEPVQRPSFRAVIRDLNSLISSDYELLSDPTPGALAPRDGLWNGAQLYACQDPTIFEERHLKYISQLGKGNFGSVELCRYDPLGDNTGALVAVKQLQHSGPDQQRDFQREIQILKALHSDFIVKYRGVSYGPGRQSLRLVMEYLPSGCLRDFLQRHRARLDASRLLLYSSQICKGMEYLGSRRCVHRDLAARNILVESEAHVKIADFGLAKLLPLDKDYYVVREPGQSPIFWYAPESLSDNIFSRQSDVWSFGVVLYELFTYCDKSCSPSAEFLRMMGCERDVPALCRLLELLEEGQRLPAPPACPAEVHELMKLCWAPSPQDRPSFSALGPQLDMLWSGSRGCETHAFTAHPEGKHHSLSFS
Experimental: as §1, §2

JAK2, sequence (O60674 whole entry): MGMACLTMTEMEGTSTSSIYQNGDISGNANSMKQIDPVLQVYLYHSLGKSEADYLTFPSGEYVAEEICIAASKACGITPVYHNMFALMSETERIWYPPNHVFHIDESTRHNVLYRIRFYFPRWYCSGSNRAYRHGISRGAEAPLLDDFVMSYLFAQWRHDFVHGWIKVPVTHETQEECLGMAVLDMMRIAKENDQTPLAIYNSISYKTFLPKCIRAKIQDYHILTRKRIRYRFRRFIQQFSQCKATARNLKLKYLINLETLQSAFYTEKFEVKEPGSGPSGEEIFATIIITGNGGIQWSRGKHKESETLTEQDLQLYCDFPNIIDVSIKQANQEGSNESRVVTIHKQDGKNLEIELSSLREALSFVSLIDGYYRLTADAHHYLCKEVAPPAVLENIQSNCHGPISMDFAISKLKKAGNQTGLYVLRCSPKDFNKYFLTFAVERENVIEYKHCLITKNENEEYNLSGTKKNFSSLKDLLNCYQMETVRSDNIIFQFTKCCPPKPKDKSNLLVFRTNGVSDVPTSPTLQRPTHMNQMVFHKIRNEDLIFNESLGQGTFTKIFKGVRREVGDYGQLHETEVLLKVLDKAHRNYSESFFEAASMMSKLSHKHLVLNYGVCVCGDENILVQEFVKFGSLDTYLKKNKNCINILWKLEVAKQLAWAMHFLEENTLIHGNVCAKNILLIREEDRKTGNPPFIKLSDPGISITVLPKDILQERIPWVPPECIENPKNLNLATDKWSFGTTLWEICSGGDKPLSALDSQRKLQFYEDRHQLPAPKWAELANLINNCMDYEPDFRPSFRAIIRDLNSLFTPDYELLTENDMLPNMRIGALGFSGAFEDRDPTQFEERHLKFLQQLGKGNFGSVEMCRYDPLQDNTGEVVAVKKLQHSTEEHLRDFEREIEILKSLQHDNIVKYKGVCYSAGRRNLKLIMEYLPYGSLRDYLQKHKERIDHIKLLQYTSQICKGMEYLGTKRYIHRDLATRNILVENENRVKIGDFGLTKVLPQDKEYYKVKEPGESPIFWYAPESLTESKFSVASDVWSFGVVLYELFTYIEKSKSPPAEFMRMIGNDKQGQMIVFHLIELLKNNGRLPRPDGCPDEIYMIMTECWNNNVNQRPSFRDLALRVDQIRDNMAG

SMILES	Ki [1] [nM]	Ki [2] [nM]
N#CCC(=O)N1CC=C(c2cccc(-c3c[nH]c4ncncc34)n2)CC1 [Compound 30, 3-(4-(6-(7H-pyrrolo[2,3-d]pyrimidin-5-yl)pyridin-2-yl)-5,6-dihydropyridin-1(2H)-yl)-3-oxopropanenitrile]	< 500	< 500
CC1(C(=O)NCC(F)(F)F)CCCN1c1nc(-c2c[nH]c3ncncc23)ncc1F (stereo not shown) [Compound 102]	< 500	< 500
C[C@H](Nc1nc(-c2c[nH]c3ncncc23)nc2ccccc12)C(=O)NCC(F)(F)F [Compound 34]	500 to 5000	< 500
O=C(NCC(F)(F)F)[C@H]1C[C@H](O)CN1c1nc(-c2c[nH]c3ncncc23)ncc1F [Compound 93]	500 to 5000	< 500
COC[C@H](Nc1nc(-c2c[nH]c3ncncc23)ncc1F)C(=O)NCC(F)(F)F [Compound 42, (S)-2-(5-fluoro-2-(7H-pyrrolo[2,3-d]pyrimidin-5-yl)pyrimidin-4-ylamino)-N-(2,2,2-trifluoroethyl)-3-methoxypropanamide]	500 to 5000	< 500
CC(C)[C@@](C)(Nc1nc(-c2c[nH]c3ncncc23)ncc1F)C(=O)NCC(F)(F)F [Compound 65]	< 500	< 500
C[C@@H](Nc1nc(-c2c[nH]c3ncncc23)nc2ccccc12)C(=O)NCC(F)(F)F [Compound 38]	< 500	< 500
O=C(NCC(F)(F)F)C1(Nc2ccnc(-c3c[nH]c4ncncc34)n2)CCCC1 [Compound 98]	< 500	< 500
CC(C)(Nc1ccnc(-c2c[nH]c3ncncc23)n1)C(=O)NCC(F)(F)F [Compound 63]	< 500	< 500
C[C@@H](Nc1nc(-c2c[nH]c3ncncc23)ncc1F)C(=O)NCC(F)(F)F [Compound 40, (R)-2-(5-fluoro-2-(7H-pyrrolo[2,3-d]pyrimidin-5-yl)pyrimidin-4-ylamino)-N-(2,2,2-trifluoroethyl)propanamide]	< 500	< 500
CC[C@@](C)(Nc1nc(-c2c[nH]c3ncncc23)ncc1F)C(=O)NCC(F)(F)F [Compound 81]	< 500	< 500
OC[C@H]1CCCN1c1nc(-c2c[nH]c3ncncc23)ncc1F [Compound 22, ((R)-1-(5-fluoro-2-(7H-pyrrolo[2,3-d]pyrimidin-5-yl)pyrimidin-4-yl)pyrrolidin-2-yl)methanol]	500 to 5000	500 to 5000
CC(C)(Nc1nc(-c2c[nH]c3ncncc23)ncc1F)C(=O)NCCF [Compound 106]	< 500	< 500
COC[C@H](Nc1ccnc(-c2c[nH]c3ncncc23)n1)C(=O)NCC(F)(F)F [Compound 48, (S)-2-(2-(7H-pyrrolo[2,3-d]pyrimidin-5-yl)pyrimidin-4-ylamino)-N-(2,2,2-trifluoroethyl)-3-methoxypropanamide]	> 5000	500 to 5000
C[C@H](c1ccccc1)N(C)c1ccnc(-c2c[nH]c3ncncc23)n1 [Compound 85]	< 500	< 500
CC(C)[C@@](C)(Nc1ccnc(-c2c[nH]c3ncncc23)n1)C(=O)NCC(F)(F)F [Compound 87]	< 500	< 500
O=C(NCC(F)(F)F)C1(Nc2ccnc(-c3c[nH]c4ncncc34)n2)CCC1 [Compound 64]	< 500	< 500
CC(C)[C@H](C(=O)NCC(F)(F)F)N(C)c1nc(-c2c[nH]c3ncncc23)ncc1F [Compound 74]	< 500	< 500
COC[C@H]1CCCN1C(=O)c1cc(N[C@@H](C)C(=O)NCC(F)(F)F)nc(-c2c[nH]c3ncncc23)n1 [Compound 11]	> 5000	500 to 5000

SMILES	Ki [1] [nM]	Ki [2] [nM]
CC[C@@H](C(=O)NCC(F)(F)F)n1cnc2cnc(-c3c[nH]c4ncncc34)nc21 [Compound 113]	< 500	< 500
Nc1nc(-c2c[nH]c3ncncc23)ncc1F [Compound 49]	> 5000	500 to 5000
CC(C)(Nc1nc(-c2c[nH]c3ncncc23)ncc1F)C(=O)NCC(F)F [Compound 107]	< 500	< 500
CC(C)[C@H](C(=O)NCC(F)(F)F)n1ccc2cnc(-c3c[nH]c4ncncc34)nc21 [Compound 110, (R)-2-(2-(7H-pyrrolo[2,3-d]pyrimidin-5-yl)-7H-pyrrolo[2,3-d]pyrimidin-7-yl)-N-(2,2,2-trifluoroethyl)-3-methylbutanamide]	< 500	< 500
C1=C(c2cccc(-c3c[nH]c4ncncc34)n2)CCNC1 [Compound 29, 6-(7H-Pyrrolo[2,3-d]pyrimidin-5-yl)-1′,2′,3′,6′-tetrahydro-[2,4′]bipyridinyl hydrochloride]	500 to 5000	500 to 5000
C[C@H](Nc1cc(C#N)cc(-c2c[nH]c3ncncc23)n1)C(=O)NCC(F)(F)F [Compound 19, (S)-2-(4-cyano-6-(7H-pyrrolo[2,3-d]pyrimidin-5-yl)pyridin-2-ylamino)-N-(2,2,2-trifluoroethyl)propanamide]	500 to 5000	< 500
C[C@H](Nc1cc(OC2CCOC2)nc(-c2c[nH]c3ncncc23)n1)C(=O)NCC(F)(F)F (stereo partly shown) [Compound 10]	> 5000	500 to 5000
O=C(NCC(F)(F)F)[C@H]1C[C@H](O)CN1c1ccnc(-c2c[nH]c3ncncc23)n1 [Compound 94]	< 500	< 500
O=C(NCC(F)(F)F)[C@H]1CCCCN1c1cnc(-c2c[nH]c3ncncc23)nc1 [Compound 54]	< 500	< 500
O=C(NCC(F)(F)F)[C@@H]1CCN1c1cnc(-c2c[nH]c3ncncc23)nc1 [Compound 55]	500 to 5000	500 to 5000
O=C(NCC(F)(F)F)[C@H](CO)Nc1nc(-c2c[nH]c3ncncc23)ncc1F [Compound 50]	500 to 5000	< 500
CC1CCN(C(=O)c2cc(N[C@@H](C)C(=O)NCC(F)(F)F)nc(-c3c[nH]c4ncncc34)n2)CC1 [Compound 7]	500 to 5000	< 500
CC(C)[C@H](C(=O)NCC(F)(F)F)N(C)c1ccnc(-c2c[nH]c3ncncc23)n1 [Compound 73]	< 500	< 500
O=C(NCC(F)(F)F)C(Nc1nc(-c2c[nH]c3ncncc23)ncc1F)c1cccnc1 (stereo not shown) [Compound 67]	500 to 5000	500 to 5000
CCC(CC)(Nc1ccnc(-c2c[nH]c3ncncc23)n1)C(=O)NCC(F)(F)F [Compound 90]	< 500	< 500
C[C@H](Nc1cc(C(=O)N2CCOCC2)nc(-c2c[nH]c3ncncc23)n1)C(=O)NCC(F)(F)F [Compound 12]	500 to 5000	< 500
CC(C)(Nc1nc(-c2c[nH]c3ncncc23)ncc1F)C(=O)NCC(F)(F)F [Compound 56, 2-(5-fluoro-2-(7H-pyrrolo[2,3-d]pyrimidin-5-yl)pyrimidin-4-ylamino)-N-(2,2,2-trifluoroethyl)-2-methylpropanamide]	< 500	< 500
C[C@H](Nc1nc(-c2c[nH]c3ncncc23)cc(N2CCOCC2)n1)C(=O)NCC(F)(F)F [Compound 35]	> 5000	500 to 5000
C[C@@H](Nc1ccnc(-c2c[nH]c3ncncc23)n1)C(=O)N(C)CC(F)(F)F [Compound 103]	500 to 5000	< 500

Reference: patent US8580802B2, “Pyrrolo[2,3-D]pyrimidines as inhibitors of Janus kinases” (Vertex Pharmaceuticals Incorporated, priority 2005, dated 2013)
